Experimental data: ChEMBL document CHEMBL1132326, “Synthesis and dopamine receptor modulating activity of substituted bicyclic thiazolidine lactam peptidomimetics of L-prolyl-L-leucyl-glycinamide” (1999)

Experiments:
[1] = system: Rattus norvegicus; assay: Effect on rotational behavior in rat after i.p. administration of 1 ug/kg; assay type: functional
[2] = system: Rattus norvegicus; assay: Effect on rotational behavior in rat after i.p. administration of 0.1 ug/kg; assay type: functional

Row | Structure (SMILES) | Increase [1] | Increase [2]
1 | NC(=O)[C@H]1CS[C@@H]2C[C@@](Cc3ccccc3)(NC(=O)[C@@H]3CCCN3)C(=O)N12 | 30% | –
2 | CC(C)C[C@@]1(NC(=O)[C@@H]2CCCN2)C[C@H]2SC[C@H](C(N)=O)N2C1=O | 44% | –
3 | NC(=O)[C@H]1CS[C@@H]2C[C@@H](NC(=O)[C@@H]3CCCN3)C(=O)N12 | – | 23%
4 | CCCC[C@@]1(NC(=O)[C@@H]2CCCN2)C[C@H]2SC[C@H](C(N)=O)N2C1=O | – | 56%
